Measurements: patent publication US7517907B2, “Pharmaceutical/cosmetic compositions comprising a novel RARbeta receptor-activating ligand” (Galderma Research & Development, priority 2003, dated 2009)

How the values were obtained:
RARalpha = molecular target: T1, RARalpha (Homo sapiens, UniProt P10276); assay: Transactivation assay (luciferase reporter, HeLa stable transfectants), RARalpha; type: cell-based
T1 sequence (P10276 183-417 limits assumed): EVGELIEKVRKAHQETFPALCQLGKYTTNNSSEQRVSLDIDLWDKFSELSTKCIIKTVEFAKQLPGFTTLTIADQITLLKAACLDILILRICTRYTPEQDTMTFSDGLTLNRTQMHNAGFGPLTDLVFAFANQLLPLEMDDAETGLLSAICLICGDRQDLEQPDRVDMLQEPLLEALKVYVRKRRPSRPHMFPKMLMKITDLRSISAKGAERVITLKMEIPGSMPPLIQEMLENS
Excerpt: [The procedure below names another target; the source lists this target under the same test.] (§1) The compounds according to the invention have activating properties on RARbeta-type receptors. This RARbeta receptor-activating activity can in particular be measured in a transactivation assay by means of the dissocation constant Kdapp (apparent), the AC50 (concentration giving 50% of the activity of the reference molecule) and also by means of the % activation.
(§2) The activation of receptors with an agonist (activator) in HeLa cells leads to the expression of a reporter gene, luciferase, which, in the presence of a substrate, generates light. The activation of the receptors can thus be measured by quantifying the luminescence produced after incubating the cells in the presence of a reference antagonist. Activating products will displace the antagonist from its site, thus allowing activation of the receptor. The activity is measured by quantifying the increase in light produced. This measurement makes it possible to determine the activating activity of the compound according to the invention.
(§3) In this study, a constant is determined which represents the affinity of the molecule for the receptor. […]
(§4) These crossed curves make it possible to determine the AC50 values (concentration at which 50% activation is observed) for the reference ligand at various concentrations of test product. These AC50 values are used to calculate the Schild regression by plotting a straight line corresponding to the Schild equation (“quantitation in receptor pharmacology” Terry P. Kenakin, Receptors and Channels, 2001, 7, 371-385).
(§5) In the case of an agonist, an AC50 value (concentration giving 50% activity) is calculated by plotting the curve of the product at the concentration of the reference ligand that gives 80% activation. The % activation which corresponds to the maximum level of activity obtained is also measured. […]
(§6) The culture medium is removed by turning the plates over, and 100 μl of a 1:1 PBS/luciferin mixture are added to each well. After 5 minutes, the plates are read using a luminescence reader.

RARbeta [1] = molecular target: T2, RARbeta (Homo sapiens, UniProt P10826); assay: Transactivation assay (luciferase reporter, HeLa stable transfectants), RARbeta; type: cell-based
T2 construct: RARbeta Kdapp; RARbeta AC50; other: maximum level of activity obtained, relative to 100% control total agonist
T2 sequence (P10826 183-417 limits assumed): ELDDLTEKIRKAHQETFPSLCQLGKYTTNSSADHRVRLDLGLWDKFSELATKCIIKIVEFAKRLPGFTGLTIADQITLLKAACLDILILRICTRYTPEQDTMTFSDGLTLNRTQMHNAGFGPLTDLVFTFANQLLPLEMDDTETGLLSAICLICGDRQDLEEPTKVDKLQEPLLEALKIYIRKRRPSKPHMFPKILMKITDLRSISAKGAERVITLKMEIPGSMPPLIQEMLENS
Excerpt: as §1, §2
(§7) In this study, a constant is determined which represents the affinity of the molecule for the receptor. Since this value can fluctuate depending on the basal activity and the expression of the receptor, it is referred to as the Kd apparent (Kdapp).
(§8) To determine this constant, “crossed curves” of the test product against a reference antagonist, otherwise referred to as reference ligand, 4-(5,5-dimethyl-8-p-tolyl-5,6-dihydronaphthalen-2-ylethynyl)benzoic acid, are realized in 96-well plates. The test product is used at 10 concentrations and the reference antagonist at 7 concentrations. In each, the cells are in contact with a concentration of the test product and with a concentration of the reference antagonist, 4-(5,5-dimethyl-8-p-tolyl-5,6-dihydronaphthalen-2-ylethynyl)benzoic acid. […]
as §4, §5, §6

RARbeta [2] = assay: as above; type: cell-based, human; details: RARbeta Kdapp to RARalpha or RARgamma Kdapp
Excerpt: as §1, §2, §7, §8, §4, §5, §6

RARgamma = molecular target: T3, RARgamma (Homo sapiens, UniProt P13631); assay: Transactivation assay (luciferase reporter, HeLa stable transfectants), RARgamma; type: cell-based
T3 sequence (P13631 185-419 limits assumed): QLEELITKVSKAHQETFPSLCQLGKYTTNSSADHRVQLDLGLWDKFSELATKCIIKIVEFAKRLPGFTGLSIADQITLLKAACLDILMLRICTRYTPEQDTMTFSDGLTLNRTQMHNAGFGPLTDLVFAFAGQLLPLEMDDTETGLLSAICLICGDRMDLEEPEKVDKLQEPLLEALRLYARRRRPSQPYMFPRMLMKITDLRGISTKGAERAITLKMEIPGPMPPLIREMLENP
Excerpt: [The procedure below names another target; the source lists this target under the same test.] as §1, §2, §3, §4, §5, §6

[3] = concentration giving 50% activity, at the reference ligand concentration giving 80% activation, HeLa cells
[4] = maximum level of activity obtained, relative to 100% control total agonist

Work on CC1(C)OCC(COc2ccc(-c3ccc4cc(C(=O)O)ccc4c3)cc2C23CC4CC(CC(C4)C2)C3)O1 (stereo not shown) [Ex. 1, 6-[3-adamantan-1-yl-4-(2,2-dimethyl[1,3]dioxolan-4-ylmethoxy)phenyl]naphthalene-2-carboxylic acid] yielded a Kd (RARalpha; apparent Kd from Schild regression, crossed curves against reference antagonist, HeLa cells, read-out: RARalpha Kdapp) of 8 µM, an AC50 (RARalpha; [3]) of 1.8 µM and an RARalpha % activation (RARalpha; [4]) of 20%. For the same molecule, the Kd (RARbeta [1]; apparent Kd from Schild regression, crossed curves against reference antagonist, HeLa cells, read-out: RARbeta Kdapp) was 0.06 µM, the AC50 (RARbeta [1]; [3]) was 0.012 µM and the RARbeta % activation (RARbeta [1]; [4]) was 100%. The “ratio of the Kdapp values R” value (RARbeta [2]) was 0.015, the Kd (RARgamma; apparent Kd from Schild regression, crossed curves against reference antagonist, HeLa cells, read-out: RARgamma Kdapp) was 4 µM and the AC50 (RARgamma; [3]) was 2 µM. For the same molecule, the RARgamma % activation (RARgamma; [4]) was 40%.
